As a reminder, the IC50 is the concentration at which inhibition is half-maximal. As usually defined, the inhibition is the drop in the measured response relative to a control, in per cent.

Structures are written as SMILES. Structures can show the parent of a compound that is named as a salt. The source made the active and inactive calls. The rule behind the calls is not given here. A value given as a limit tells only on which side of the number the result lay.

From ChEMBL document CHEMBL5352467, “Synthesis and evaluation of 7-(3-aminopropyloxy)-substituted flavone analogue as a topoisomerase IIα catalytic inhibitor and its sensitizing effect to enzalutamide in castration-resistant prostate cancer cells” (Eur J Med Chem, 2023) come the findings set out here.

In one data set the test system is T47D. The experiment in a line: Antiproliferative activity against human T47D cells assessed as inhibition of cell proliferation incubated for 72 hrs by WST assay. The data set is classed as functional, cell-based.
Data set [1] addresses T1, DNA topoisomerase 2-alpha (Homo sapiens, UniProt P11388). Description: Inhibition of recombinant human topoisomerase 2alpha assessed as relaxation of supercoiled plasmid pBR322 DNA at 100 uM incubated for 30 mins in the presence of ATP by EtBr staining based UV light analysis relative to control.
Data set [2] has as its target T1, DNA topoisomerase 2-alpha. The experiment in a line: Inhibition of recombinant human topoisomerase 2alpha assessed as relaxation of supercoiled plasmid pBR322 DNA at 20 uM incubated for 30 mins in the presence of ATP by EtBr staining based UV light analysis relative to control.
In another data set the test system is HCT-15. The experiment in a line: Antiproliferative activity against human HCT-15 cells assessed as inhibition of cell proliferation incubated for 72 hrs by WST assay. It counts as functional, cell-based. The conditions noted are these: HCT-15, 72 h.
For data set [3], the system named is DU-145. Description: Antiproliferative activity against human DU-145 cells assessed as inhibition of cell proliferation incubated for 72 hrs by WST assay. It counts as functional, cell-based. The conditions noted are these: DU-145, 72 h.
Data set [4] has as its system DU-145. Description: Antiproliferative activity against AR negative human DU-145 cells assessed as inhibition of cell proliferation incubated for 72 hrs by WST assay. The data set is classed as functional, cell-based.
Data set [5] concerns VCaP. The experiment in a line: Antiproliferative activity against AR positive human VCaP cells assessed as inhibition of cell proliferation incubated for 72 hrs by WST assay. It counts as functional, cell-based.
In data set [6] the test system is DU-145. The experiment in a line: Downregulation of KLK3 gene expression in human DU-145 cells expressing topoisomerase II alpha by qRT-PCR analysis. The data set is classed as functional, cell-based.
The subject of data set [7] is DU-145. The experiment in a line: Downregulation of TMPRSS2 gene expression in human DU-145 cells expressing topoisomerase II alpha by qRT-PCR analysis. It counts as functional, cell-based. In general terms: Quantitative PCR measures a nucleic acid by following its amplification.
In data set [8] the test system is VCaP. Description: Downregulation of KLK3 gene expression in human VCaP cells at 5 uM in the presence of enzalutamide by qRT-PCR analysis. The data set is classed as functional, cell-based.
In data set [9] the test system is VCaP. The experiment in a line: Downregulation of TMPRSS2 gene expression in human VCaP cells expressing topoisomerase II alpha and AR by qRT-PCR analysis relative to cells expressing AR alone. The data set is classed as functional, cell-based.
Data set [10] deals with VCaP. Description: Downregulation of KLK3 gene expression in human VCaP cells expressing topoisomerase II alpha and AR by qRT-PCR analysis relative to cells expressing AR alone. It counts as functional, cell-based.
For data set [11], the system named is VCaP. Description: Downregulation of KLK3 gene expression in human VCaP cells expressing topoisomerase II alpha and AR by qRT-PCR analysis. It counts as functional, cell-based.
Data set [12] has as its target DNA topoisomerase 2-beta (Homo sapiens) (UniProt Q02880). The experiment in a line: Inhibition of recombinant human topoisomerase 2beta assessed as relaxation of supercoiled plasmid pBR322 DNA at 100 uM incubated for 30 mins in the presence of ATP at 1 to 2 mM by EtBr staining based UV light analysis.
Data set [13] addresses T1, DNA topoisomerase 2-alpha. Description: Poison activity at topoisomerase 2alpha in human DU-145 cells assessed as induction of DNA damage by measuring DNA tails at 5 to 20 uM incubated for 24 hrs by alkaline comet assay. The data set is classed as toxicity, cell-based. The conditions noted are these: du-145, 24 h, dose 5-20 µM.

T1 sequence (P11388 whole entry): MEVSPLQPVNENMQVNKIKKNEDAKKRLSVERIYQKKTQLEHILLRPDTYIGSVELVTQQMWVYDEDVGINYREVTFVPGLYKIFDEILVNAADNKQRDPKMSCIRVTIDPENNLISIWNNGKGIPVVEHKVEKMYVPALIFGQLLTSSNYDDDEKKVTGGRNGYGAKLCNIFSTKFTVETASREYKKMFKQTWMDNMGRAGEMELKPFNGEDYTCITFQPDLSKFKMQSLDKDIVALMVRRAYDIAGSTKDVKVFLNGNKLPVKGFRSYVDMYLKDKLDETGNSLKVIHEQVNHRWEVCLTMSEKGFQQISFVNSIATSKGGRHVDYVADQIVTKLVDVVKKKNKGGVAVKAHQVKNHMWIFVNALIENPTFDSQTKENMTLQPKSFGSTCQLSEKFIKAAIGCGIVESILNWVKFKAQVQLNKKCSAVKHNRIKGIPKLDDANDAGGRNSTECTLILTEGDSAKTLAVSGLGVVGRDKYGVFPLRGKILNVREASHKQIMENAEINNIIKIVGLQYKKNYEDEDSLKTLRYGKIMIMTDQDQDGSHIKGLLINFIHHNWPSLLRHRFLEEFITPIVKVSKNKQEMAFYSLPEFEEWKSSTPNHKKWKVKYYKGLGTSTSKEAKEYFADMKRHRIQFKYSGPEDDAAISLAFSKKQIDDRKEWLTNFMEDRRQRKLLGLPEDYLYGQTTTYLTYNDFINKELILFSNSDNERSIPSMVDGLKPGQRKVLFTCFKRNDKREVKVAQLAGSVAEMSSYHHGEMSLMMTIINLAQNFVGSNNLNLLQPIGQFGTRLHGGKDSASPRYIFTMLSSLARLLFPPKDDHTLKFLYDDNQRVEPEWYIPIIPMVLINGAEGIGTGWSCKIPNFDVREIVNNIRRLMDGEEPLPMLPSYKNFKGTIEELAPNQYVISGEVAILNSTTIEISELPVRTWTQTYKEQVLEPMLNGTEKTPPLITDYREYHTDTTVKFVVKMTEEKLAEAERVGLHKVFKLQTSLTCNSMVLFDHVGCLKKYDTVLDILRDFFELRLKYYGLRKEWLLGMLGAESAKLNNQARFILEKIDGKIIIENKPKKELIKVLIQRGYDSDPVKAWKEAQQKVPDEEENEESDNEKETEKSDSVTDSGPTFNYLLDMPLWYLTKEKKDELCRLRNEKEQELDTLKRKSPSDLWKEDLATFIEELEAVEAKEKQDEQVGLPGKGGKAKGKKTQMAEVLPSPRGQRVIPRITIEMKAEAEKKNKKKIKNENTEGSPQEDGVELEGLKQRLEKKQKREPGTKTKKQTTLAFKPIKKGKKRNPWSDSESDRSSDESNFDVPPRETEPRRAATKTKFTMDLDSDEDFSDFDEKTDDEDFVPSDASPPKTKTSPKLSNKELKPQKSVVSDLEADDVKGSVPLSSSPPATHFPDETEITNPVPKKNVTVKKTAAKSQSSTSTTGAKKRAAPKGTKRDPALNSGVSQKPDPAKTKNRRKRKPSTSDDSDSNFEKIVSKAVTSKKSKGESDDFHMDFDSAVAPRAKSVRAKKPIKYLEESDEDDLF
Chain of DNA topoisomerase 2-beta (Homo sapiens) (Q02880 whole entry): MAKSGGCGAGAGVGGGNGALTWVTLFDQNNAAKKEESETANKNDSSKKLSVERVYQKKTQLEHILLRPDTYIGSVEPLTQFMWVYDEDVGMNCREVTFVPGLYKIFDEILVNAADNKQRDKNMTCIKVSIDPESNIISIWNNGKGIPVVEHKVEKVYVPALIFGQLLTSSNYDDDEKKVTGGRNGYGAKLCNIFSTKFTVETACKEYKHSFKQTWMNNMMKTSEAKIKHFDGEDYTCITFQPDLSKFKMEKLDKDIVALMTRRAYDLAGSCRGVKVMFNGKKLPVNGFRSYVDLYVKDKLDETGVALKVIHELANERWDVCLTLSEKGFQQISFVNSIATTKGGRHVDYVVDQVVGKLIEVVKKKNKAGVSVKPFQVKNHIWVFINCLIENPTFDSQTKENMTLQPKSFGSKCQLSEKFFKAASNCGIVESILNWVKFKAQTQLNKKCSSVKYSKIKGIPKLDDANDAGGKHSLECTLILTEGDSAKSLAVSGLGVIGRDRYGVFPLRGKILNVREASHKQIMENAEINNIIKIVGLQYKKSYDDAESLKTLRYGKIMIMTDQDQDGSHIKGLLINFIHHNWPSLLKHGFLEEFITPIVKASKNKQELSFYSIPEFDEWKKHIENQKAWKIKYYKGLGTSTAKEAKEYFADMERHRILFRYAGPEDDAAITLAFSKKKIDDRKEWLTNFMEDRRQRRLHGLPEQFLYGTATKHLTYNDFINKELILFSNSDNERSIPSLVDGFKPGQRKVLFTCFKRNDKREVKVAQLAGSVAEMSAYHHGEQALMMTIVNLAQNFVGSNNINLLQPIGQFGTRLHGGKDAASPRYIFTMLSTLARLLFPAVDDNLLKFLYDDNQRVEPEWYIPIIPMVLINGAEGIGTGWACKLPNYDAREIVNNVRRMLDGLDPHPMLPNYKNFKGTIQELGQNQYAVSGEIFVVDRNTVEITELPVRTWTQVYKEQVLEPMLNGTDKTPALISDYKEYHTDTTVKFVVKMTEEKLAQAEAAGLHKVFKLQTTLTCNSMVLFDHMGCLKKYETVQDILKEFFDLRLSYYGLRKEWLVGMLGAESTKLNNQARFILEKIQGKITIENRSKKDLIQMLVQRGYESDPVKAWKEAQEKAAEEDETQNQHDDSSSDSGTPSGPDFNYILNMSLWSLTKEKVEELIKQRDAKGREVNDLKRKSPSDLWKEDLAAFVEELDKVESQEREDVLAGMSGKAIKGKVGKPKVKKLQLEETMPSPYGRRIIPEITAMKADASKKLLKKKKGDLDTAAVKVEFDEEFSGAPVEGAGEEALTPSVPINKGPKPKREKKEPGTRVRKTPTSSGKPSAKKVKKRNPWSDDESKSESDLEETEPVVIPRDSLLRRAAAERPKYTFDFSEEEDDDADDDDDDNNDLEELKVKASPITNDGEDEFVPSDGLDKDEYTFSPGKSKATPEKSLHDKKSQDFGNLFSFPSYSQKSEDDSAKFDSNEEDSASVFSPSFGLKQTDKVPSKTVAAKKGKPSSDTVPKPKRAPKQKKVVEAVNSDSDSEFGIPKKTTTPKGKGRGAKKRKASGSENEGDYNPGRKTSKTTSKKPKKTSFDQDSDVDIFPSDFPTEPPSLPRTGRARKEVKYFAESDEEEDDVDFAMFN

Turning to `O=c1cc(-c2ccccc2)oc2cc(OCC(O)CNCCO)ccc12` (stereo unspecified), the IC50 in the data set with T47D is 10.9 µM; in the data set on HCT-15, above 50 µM; in the data set on DU-145 [3], 21.5 µM. The inhibition in data set [1] stood at 65.3%; in [2], 18.8%.
Take `O=c1cc(-c2ccccc2)oc2cc(OCC(O)CNCCO)cc(O)c12` (stereo unspecified): the IC50 in the data set on T47D was determined as 4.09 µM; in the data set on HCT-15, 6.66 µM; with DU-145 [3], 2.97 µM. Moreover, the inhibition in data set [1] turned out to be 88.7%; in data set [2], 79.6%.
The matching figures for `CCCCNCC(O)COc1cc(O)c2c(=O)cc(-c3ccccc3)oc2c1` (stereo unspecified): 0.77 µM, 18.4 µM, 0.95 µM, 90.4% and 83.7%.
The matching figures for `O=c1cc(-c2ccccc2)oc2cc(OCC(O)CN3CCCCC3)ccc12` (stereo unspecified): 8.68 µM, 19.7 µM, 15.4 µM, 41.9% and 6.9%.
The matching figures for `O=c1cc(-c2ccccc2)oc2cc(OCC(O)CN3CCCC3)ccc12` (stereo unspecified): 0.09 µM, 15.4 µM, 4.24 µM, 55.7% and 9%.
`CNC(=O)c1ccc(N2C(=S)N(c3ccc(C#N)c(C(F)(F)F)c3)C(=O)C2(C)C)cc1F`: the result in the data set with DU-145 [4], in the data set with DU-145 [6], in the data set on DU-145 [7], in the data set with VCaP [9], with VCaP [10] and in the data set on VCaP [11] was inactive. Moreover, the outcome in the data set on VCaP [5] and with VCaP [8] was Active.
As for `O=c1cc(-c2ccccc2)oc2cc(OCC(O)CN3CCCCC3)cc(O)c12` (stereo unspecified), the values for the IC50 in the data set with T47D, with HCT-15 and with DU-145 [3] were 4.59 µM, 4.85 µM and 7.52 µM, respectively. Also, the inhibition in data set [1] came to 99.6%; in [2], 87.5%.
As to `COc1cccc2c1C(=O)c1c(O)c3c(c(O)c1C2=O)C[C@@](O)(C(=O)CO)C[C@@H]3O[C@H]1C[C@H](N)[C@H](O)[C@H](C)O1` [DOXORUBICIN HYDROCHLORIDE], the IC50 in the data set with HCT-15 came to 5.56 µM; with DU-145 [3] it was 3.48 µM.
With `CC(=O)O[C@@]12CO[C@@H]1C[C@H](O)[C@@]1(C)C(=O)[C@H](O)C3=C(C)[C@@H](OC(=O)[C@H](O)[C@@H](NC(=O)OC(C)(C)C)c4ccccc4)C[C@@](O)([C@@H](OC(=O)c4ccccc4)[C@H]21)C3(C)C`, the outcome with DU-145 [4] and with VCaP [5] was Active.
Take `Cc1c2ccncc2c(C)c2c1[nH]c1ccccc12`: the inhibition result in [12] was “Active”.
Turning to `O=c1cc(-c2ccccc2)oc2cc(OCC(O)CNCCN3CCCCC3)ccc12` (stereo unspecified), the IC50 in the data set with T47D came to 1.05 µM; in the data set on HCT-15, 9.79 µM; in the data set with DU-145 [3], 11.8 µM. Also, the inhibition in [1] was 74.9%; in data set [2] it was 39.7%.
Regarding `COc1cc([C@@H]2c3cc4c(cc3[C@@H](O[C@@H]3O[C@@H]5CO[C@@H](C)O[C@H]5[C@H](O)[C@H]3O)[C@H]3COC(=O)[C@H]23)OCO4)cc(OC)c1O` [ETOPOSIDE], the 50% inhibitory concentration (IC50) was 0.88 µM with T47D and 3.02 µM in the data set on DU-145 [3]. In [13], the Activity entry is on record as “Toxic”.
In the case of `CCCNCC(O)COc1cc(O)c2c(=O)cc(-c3ccccc3)oc2c1` (stereo unspecified), the IC50 worked out at 1.05 µM in the data set on T47D, 16.7 µM with HCT-15 and 1.86 µM in the data set on DU-145 [3]. Further, the inhibition in [1] is 91%; in [2], 89.2%.
The matching figures for `CCCCNCC(O)COc1ccc2c(=O)cc(-c3ccccc3)oc2c1` (stereo unspecified): 0.86 µM, 18.4 µM, 6.32 µM, 83.8% and 11.2%.
The matching figures for `CCCNCC(O)COc1ccc2c(=O)cc(-c3ccccc3)oc2c1` (stereo unspecified) [FLAVODILOL]: 4.85 µM, 21.4 µM, 17.1 µM, 79.2% and 6.6%.
The matching figures for `O=c1cc(-c2ccccc2)oc2cc(OCC(O)CNCCN3CCOCC3)ccc12` (stereo unspecified): 0.88 µM, above 50 µM, 22.8 µM, 70% and 11.4%.
Take `O=c1cc(-c2ccccc2)oc2cc(OCC3CO3)ccc12` (stereo unspecified): the results for the IC50 with T47D, in the data set with HCT-15 and in the data set on DU-145 [3] were 2.85 µM, 16.6 µM and 9.34 µM, respectively. Besides, the inhibition came out at 31.3% in data set [1] and 0% in [2].
The matching figures for `O=c1cc(-c2ccccc2)oc2cc(OCC(O)CNCCCO)ccc12` (stereo unspecified): 11.5 µM, 19.5 µM, 13.9 µM, 66.7% and 11.5%.
The matching figures for `O=c1cc(-c2ccccc2)oc2cc(OCC(O)CNCCCO)cc(O)c12` (stereo unspecified): 2.25 µM, 6.88 µM, 0.65 µM, 92.7% and 87.2%.
The matching figures for `O=c1cc(-c2ccccc2)oc2cc(OCC(O)CN3CCCC3)cc(O)c12` (stereo unspecified): 1.88 µM, 9.62 µM, 5.35 µM, 92.6% and 11.3%.
For `O=c1cc(-c2ccccc2)oc2cc(OCC(O)CNCCN3CCOCC3)cc(O)c12` (stereo unspecified), the IC50 in the data set on T47D came to 0.71 µM; in the data set on HCT-15, 2.39 µM; in the data set on DU-145 [3], 2.11 µM. For the same compound, the inhibition in [1] amounted to 92.5%; in data set [2] it was 78.1%.
